What all share (experiment): relative viability (nuclei count vs DMSO), 5 days (fraction); higher = more cells survive
Compound in assay [1]: COc1cc(-c2nn([C@H]3CC[C@H](N4CCN(C(C)=O)CC4)CC3)c3ncnc(N)c23)ccc1NC(=O)c1cc2ccccc2n1C + O=C(c1cc(Cc2n[nH]c(=O)c3ccccc23)ccc1F)N1CCN(C(=O)C2CC2)CC1 [Olaparib] (partner 8 µM)
The gist of the method:
(§1)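 Relative viability equals treated-well nuclei counts divided by vehicle-well nuclei counts. Counts came from 4× images of lung cancer cell lines grown in 1536-well plates for 5 days after pin-tool dosing on the day after seeding. Dosing used one drug alone or a fixed anchor-drug dose plus five library-drug doses (not always all listed) in √10 steps, and values are medians of duplicate plates.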

Compound in assay [2]: COc1cc(-c2nn([C@H]3CC[C@H](N4CCN(C(C)=O)CC4)CC3)c3ncnc(N)c23)ccc1NC(=O)c1cc2ccccc2n1C + COc1cccc2cc(-c3nc([C@H]4CC[C@H](C(=O)O)CC4)n4ncnc(N)c34)[nH]c12 [OSI-027] (partner 0.5 µM)
The gist of the method: as §1

Compound in assay [3]: COc1cc(-c2nn([C@H]3CC[C@H](N4CCN(C(C)=O)CC4)CC3)c3ncnc(N)c23)ccc1NC(=O)c1cc2ccccc2n1C + CS(=O)(=O)N1CCN(Cc2cc3nc(-c4cccc5[nH]ncc45)nc(N4CCOCC4)c3s2)CC1 [Pictilisib] (partner 1 µM)
The gist of the method: as §1

Compound in the assay “Midostaurin + Foretinib”: CO[C@@H]1[C@H](N(C)C(=O)c2ccccc2)C[C@H]2O[C@]1(C)n1c3ccccc3c3c4c(c5c6ccccc6n2c5c31)C(=O)NC4 [Midostaurin] + COc1cc2c(Oc3ccc(NC(=O)C4(C(=O)Nc5ccc(F)cc5)CC4)cc3F)ccnc2cc1OCCCN1CCOCC1 [Foretinib] (partner 0.25 µM)
An outline of the steps:
as §1

Compound in assay [4]: COc1cc(-c2nn([C@H]3CC[C@H](N4CCN(C(C)=O)CC4)CC3)c3ncnc(N)c23)ccc1NC(=O)c1cc2ccccc2n1C + CC(=O)c1c(C)c2cnc(Nc3ccc(N4CCNCC4)cn3)nc2n(C2CCCC2)c1=O [Palbociclib] (partner 0.5 µM)
The gist of the method: as §1

With NCI-H3122, the relative viability in assay [1] (first compound 0.0128 µM) turned out to be 0.683; in assay [1] (first compound 0.128 µM), 0.64; in assay [1] (first compound 1.28 µM), 0.621; in assay [2] (first compound 0.0128 µM), 0.992; in assay [2] (first compound 0.04048 µM) it was 0.333; in assay [2] (first compound 0.128 µM), 0.969. In addition, the relative viability came out at 0.847 in assay [2] (first compound 1.28 µM); 0.552 in assay [3] (first compound 0.0128 µM); 0.548 in assay [3] (first compound 0.128 µM); 0.484 in assay [3] (first compound 1.28 µM); 0.926 with Midostaurin + Foretinib (first compound 0.01 µM); 0.94 with Midostaurin + Foretinib (first compound 0.03162 µM). In addition, the relative viability with Midostaurin + Foretinib (first compound 0.1 µM) was 0.718; with Midostaurin + Foretinib (first compound 0.3162 µM), 0.976; in assay [4] (first compound 0.0128 µM), 0.197; in assay [4] (first compound 0.128 µM), 0.169; in assay [4] (first compound 1.28 µM), 0.189.

Take PC-3 [JPC-3]: the relative viability in assay [1] (first compound 0.0128 µM) was found to be 1.15; in assay [1] (first compound 0.04048 µM), 1.35; in assay [1] (first compound 0.128 µM), 1.08; in assay [1] (first compound 1.28 µM), 1.24; in assay [2] (first compound 0.0128 µM) it was 0.817; in assay [2] (first compound 0.04048 µM), 0.817. Further, the relative viability in assay [2] (first compound 0.128 µM) stood at 0.77; in assay [2] (first compound 1.28 µM), 0.771; in assay [3] (first compound 0.0128 µM), 0.65; in assay [3] (first compound 0.04048 µM), 0.791; in assay [3] (first compound 0.128 µM) it was 0.721; in assay [3] (first compound 1.28 µM), 0.764. In addition, the relative viability with Midostaurin + Foretinib (first compound 0.01 µM) was 1.05; in the assay with Midostaurin + Foretinib (first compound 0.03162 µM) it was 0.942; in the assay with Midostaurin + Foretinib (first compound 0.1 µM), 1.02; in the assay with Midostaurin + Foretinib (first compound 0.3162 µM), 0.959; in assay [4] (first compound 0.0128 µM), 0.588; in assay [4] (first compound 0.04048 µM) it was 0.621. Further, the results for the relative viability in assay [4] (first compound 0.128 µM) and in assay [4] (first compound 1.28 µM) were 0.529 and 0.676, respectively.

In the case of PC-14, the relative viability was 0.231 in assay [1] (first compound 0.0128 µM); 0.349 in assay [1] (first compound 0.04048 µM); 0.283 in assay [1] (first compound 0.128 µM); 0.343 in assay [1] (first compound 1.28 µM); 0.896 in assay [2] (first compound 0.0128 µM); 1.07 in assay [2] (first compound 0.04048 µM). Besides, the relative viability in assay [2] (first compound 0.128 µM) was found to be 0.798; in assay [2] (first compound 1.28 µM) it was 0.913; in assay [3] (first compound 0.0128 µM), 0.744; in assay [3] (first compound 0.04048 µM) it was 0.792; in assay [3] (first compound 0.128 µM), 0.664; in assay [3] (first compound 1.28 µM), 0.625. The relative viability was 0.984 with Midostaurin + Foretinib (first compound 0.01 µM); 0.924 with Midostaurin + Foretinib (first compound 0.03162 µM); 0.909 in the assay with Midostaurin + Foretinib (first compound 0.1 µM); 0.899 with Midostaurin + Foretinib (first compound 0.3162 µM); 0.515 in assay [4] (first compound 0.0128 µM); 0.503 in assay [4] (first compound 0.04048 µM). Further, the relative viability in assay [4] (first compound 0.128 µM) turned out to be 0.486; in assay [4] (first compound 1.28 µM), 0.433.

In the case of RERF-LC-KJ, the relative viability amounted to 1.03 in assay [1] (first compound 0.0128 µM); 0.946 in assay [1] (first compound 0.04048 µM); 0.928 in assay [1] (first compound 0.128 µM); 0.941 in assay [1] (first compound 1.28 µM); 0.634 in assay [2] (first compound 0.0128 µM); 0.536 in assay [2] (first compound 0.04048 µM). The relative viability in assay [2] (first compound 0.128 µM) was determined as 0.581; in assay [2] (first compound 1.28 µM) it was 0.569; in assay [3] (first compound 0.0128 µM) it was 0.572; in assay [3] (first compound 0.04048 µM), 0.557; in assay [3] (first compound 0.128 µM) it was 1.11; in assay [3] (first compound 1.28 µM), 0.538. The relative viability with Midostaurin + Foretinib (first compound 0.01 µM) turned out to be 0.915; in the assay with Midostaurin + Foretinib (first compound 0.03162 µM), 0.866; with Midostaurin + Foretinib (first compound 0.1 µM), 0.939; in the assay with Midostaurin + Foretinib (first compound 0.3162 µM) it was 0.936; in assay [4] (first compound 0.0128 µM) it was 1.08; in assay [4] (first compound 0.04048 µM), 1.19. In addition, the relative viability in assay [4] (first compound 0.128 µM) was 1.07; in assay [4] (first compound 1.28 µM) it was 0.972.

In the case of SK-LU-1, the relative viability in assay [1] (first compound 0.0128 µM) was 0.411; in assay [1] (first compound 0.04048 µM) it was 0.6; in assay [1] (first compound 0.128 µM), 0.431; in assay [1] (first compound 1.28 µM), 0.402; in assay [2] (first compound 0.0128 µM), 0.4; in assay [2] (first compound 0.04048 µM) it was 0.291. The relative viability in assay [2] (first compound 0.128 µM) was determined as 0.284; in assay [2] (first compound 1.28 µM) it was 0.206; in assay [3] (first compound 0.0128 µM), 0.54; in assay [3] (first compound 0.04048 µM), 0.488; in assay [3] (first compound 0.128 µM), 0.498; in assay [3] (first compound 1.28 µM), 0.269. Further, the relative viability with Midostaurin + Foretinib (first compound 0.01 µM) amounted to 0.799; in the assay with Midostaurin + Foretinib (first compound 0.03162 µM), 0.869; with Midostaurin + Foretinib (first compound 0.1 µM) it was 0.747; in the assay with Midostaurin + Foretinib (first compound 0.3162 µM) it was 0.621; in assay [4] (first compound 0.0128 µM), 0.41; in assay [4] (first compound 0.04048 µM), 0.369. In addition, the relative viability in assay [4] (first compound 0.128 µM) is 0.357; in assay [4] (first compound 1.28 µM), 0.249.

Turning to SK-MES-1, the relative viability is 0.79 in assay [1] (first compound 0.0128 µM); 0.873 in assay [1] (first compound 0.04048 µM); 0.672 in assay [1] (first compound 0.128 µM); 0.587 in assay [1] (first compound 1.28 µM); 0.685 in assay [2] (first compound 0.0128 µM); 0.665 in assay [2] (first compound 0.04048 µM). Further, the relative viability in assay [2] (first compound 0.128 µM) came to 0.583; in assay [2] (first compound 1.28 µM), 0.562; in assay [3] (first compound 0.0128 µM), 0.343; in assay [3] (first compound 0.04048 µM), 0.402; in assay [3] (first compound 0.128 µM), 0.361; in assay [3] (first compound 1.28 µM) it was 0.221. In addition, the relative viability stood at 0.927 in the assay with Midostaurin + Foretinib (first compound 0.01 µM); 0.925 in the assay with Midostaurin + Foretinib (first compound 0.03162 µM); 0.963 with Midostaurin + Foretinib (first compound 0.1 µM); 0.781 with Midostaurin + Foretinib (first compound 0.3162 µM); 0.298 in assay [4] (first compound 0.0128 µM); 0.374 in assay [4] (first compound 0.04048 µM). Also, the results for the relative viability in assay [4] (first compound 0.128 µM) and in assay [4] (first compound 1.28 µM) were 0.319 and 0.277, respectively.

As to SW 1573, the relative viability in assay [1] (first compound 0.0128 µM) turned out to be 0.439; in assay [1] (first compound 0.04048 µM) it was 0.414; in assay [1] (first compound 0.128 µM), 0.412; in assay [1] (first compound 1.28 µM), 0.393; in assay [2] (first compound 0.0128 µM) it was 0.68; in assay [2] (first compound 0.04048 µM), 0.691. Further, the relative viability in assay [2] (first compound 0.128 µM) was 0.624; in assay [2] (first compound 1.28 µM), 0.466; in assay [3] (first compound 0.0128 µM), 0.496; in assay [3] (first compound 0.04048 µM), 0.497; in assay [3] (first compound 0.128 µM) it was 0.497; in assay [3] (first compound 1.28 µM) it was 0.362. Also, the relative viability with Midostaurin + Foretinib (first compound 0.01 µM) came out at 1.05; with Midostaurin + Foretinib (first compound 0.03162 µM), 0.806; with Midostaurin + Foretinib (first compound 0.1 µM) it was 1.03; in the assay with Midostaurin + Foretinib (first compound 0.3162 µM), 1.01; in assay [4] (first compound 0.0128 µM) it was 0.393; in assay [4] (first compound 0.04048 µM), 0.388. Also, the relative viability in assay [4] (first compound 0.128 µM) worked out at 0.172; in assay [4] (first compound 1.28 µM), 0.347.

The values are drawn from the supplement of paper PMC10307832.
